Data taken from patent US20150005281A1, “PYRIMIDINE-2,4-DIAMINE DERIVATIVES AS KINASE INHIBITORS” (Cellzome Limited, priority 2011, published 2015).

Tests used:
Assay type in all cases: binding
JAK1 = molecular target: T1, JAK1 (Homo sapiens, UniProt P23458); experiment: Kinobeads assay with immunodetection, JAK1; settings: for IC50: Kinobeads assay, mixed Molt4/Ramos lysate, read-out: Inhibition values (IC50) JAK1
T1 construct: endogenous in cells; host or cells: Molt4 (ATCC CRL-1582) and Ramos (ATCC CRL-1596) cells; mixed lysate 1:2
Procedure: (§1) Determination of the Effect of the Compounds According to the Invention on Janus Kinases (JAK Family) in Kinobeads™ Assays with Immunodetection of Kinases
(§2) The compounds of the present invention as described in the previous examples were tested in a Kinobeads™ assay as described for ZAP-70 (WO-A 2007/137867). Briefly, test compounds (at various concentrations) and the affinity matrix with the immobilized aminopyrido-pyrimidine ligand 24 were added to cell lysate aliquots and allowed to bind to the proteins in the lysate sample. After the incubation time the beads with captured proteins were separated from the lysate. Bound proteins were then eluted and the presence of JAK1, JAK2, JAK3 and TYK2 was detected and quantified using specific antibodies in a dot blot procedure and the Odyssey infrared detection system. Dose response curves for individual kinases were generated and IC50 values calculated. Kinobeads™ assays for ZAP-70 (WO-A 2007/137867) and for kinase selectivity profiling (WO-A 2006/134056) have been previously described.
(§3) The affinity matrix was washed two times with 15 mL of 1×DP buffer containing 0.2% NP40 (IGEPAL® CA-630, Sigma, #13021) and then resuspended in 1×DP buffer containing 0.2% NP40 (3% beads slurry).
(§4) 5×DP buffer: 250 mM Tris-HCl pH 7.4, 25% Glycerol, 7.5 mM MgCl2, 750 mM NaCl, 5 mM Na3VO4; filter the 5×DP buffer through a 0.22 μm filter and store in aliquots at −80° C. The 5×DP buffer is diluted with H2O to 1×DP buffer containing 1 mM DTT and 25 mM NaF.
(§5) Stock solutions of test compounds were prepared in DMSO. In a 96 well plate 30 μL solution of diluted test compounds at 5 mM in DMSO were prepared. Starting with this solution a 1:3 dilution series (9 steps) was prepared. For control experiments (no test compound) a buffer containing 2% DMSO was used.
(§6) Molt4 cells (ATCC catalogue number CRL-1582) and Ramos cells (ATCC catalogue number CRL-1596) were grown in 1 L Spinner flasks (Integra Biosciences, #182101) in suspension in RPMI 1640 medium (Invitrogen, #21875-034) supplemented with 10% Fetal Bovine Serum (Invitrogen) at a density between 0.15×10^6 and 1.2×10^6 cells/mL. Cells were harvested by centrifugation, washed once with 1×PBS buffer (Invitrogen, #14190-094) and cell pellets were frozen in liquid nitrogen and subsequently stored at −80° C. Cells were homogenized in a Potter S homogenizer in lysis buffer: 50 mM Tris-HCl, 0.8% NP40, 5% glycerol, 150 mM NaCl, 1.5 mM MgCl2, 25 mM NaF, 1 mM sodium vanadate, 1 mM DTT, pH 7.5. One complete EDTA-free tablet (protease inhibitor cocktail, Roche Diagnostics, 1873580) per 25 ml, buffer was added. The material was dounced 10 times using a mechanized POTTER S, transferred to 50 mL falcon tubes, incubated for 30 minutes on ice and spun down for 10 minutes at 20,000 g at 4° C. (10,000 rpm in Sorvall SLA600, precooled). The supernatant was transferred to an ultracentrifuge (UZ)-polycarbonate tube (Beckmann, 355654) and spun for 1 hour at 100.000 g at 4° C. (33.500 rpm in Ti50.2, precooled). The supernatant was transferred again to a fresh 50 mL falcon tube, the protein concentration was determined by a Bradford assay (BioRad) and samples containing 50 mg of protein per aliquot were prepared. The samples were immediately used for experiments or frozen in liquid nitrogen and stored frozen at −80° C.
(§7) Cell lysate (approximately 50 mg protein per plate) was thawed in a water bath at room temperature and then stored on ice. To the thawed cell lysate 1×DP 0.8% NP40 buffer containing protease inhibitors (1 tablet for 25 mL buffer; EDTA-free protease inhibitor cocktail; Roche Diagnostics 1873580) was added in order to reach a final protein concentration of 10 mg/mL total protein. The diluted cell lysate was stored on ice. Mixed Molt4/Ramos lysate was prepared by combining one volume of Molt4 lysate and two volumes of Ramos lysate (ratio 1:2). […]

JAK2 = molecular target: T2, JAK2 (Homo sapiens, UniProt O60674); experiment: Kinobeads assay with immunodetection, JAK2; settings: mixed Molt4/Ramos lysate, read-out: Inhibition values (IC50) JAK2
T2 construct: endogenous in cells; host or cells: Molt4 (ATCC CRL-1582) and Ramos (ATCC CRL-1596) cells; mixed lysate 1:2
Procedure: as §1, §2, §3, §4, §5, §6, §7

JAK3 = molecular target: T3, JAK3 (Homo sapiens, UniProt P52333); experiment: Kinobeads assay with immunodetection, JAK3; settings: for IC50: Kinobeads assay, mixed Molt4/Ramos lysate, read-out: Inhibition values (IC50) JAK3
T3 construct: endogenous in cells; host or cells: Molt4 (ATCC CRL-1582) and Ramos (ATCC CRL-1596) cells; mixed lysate 1:2
T3 sequence (P52333 1-1124): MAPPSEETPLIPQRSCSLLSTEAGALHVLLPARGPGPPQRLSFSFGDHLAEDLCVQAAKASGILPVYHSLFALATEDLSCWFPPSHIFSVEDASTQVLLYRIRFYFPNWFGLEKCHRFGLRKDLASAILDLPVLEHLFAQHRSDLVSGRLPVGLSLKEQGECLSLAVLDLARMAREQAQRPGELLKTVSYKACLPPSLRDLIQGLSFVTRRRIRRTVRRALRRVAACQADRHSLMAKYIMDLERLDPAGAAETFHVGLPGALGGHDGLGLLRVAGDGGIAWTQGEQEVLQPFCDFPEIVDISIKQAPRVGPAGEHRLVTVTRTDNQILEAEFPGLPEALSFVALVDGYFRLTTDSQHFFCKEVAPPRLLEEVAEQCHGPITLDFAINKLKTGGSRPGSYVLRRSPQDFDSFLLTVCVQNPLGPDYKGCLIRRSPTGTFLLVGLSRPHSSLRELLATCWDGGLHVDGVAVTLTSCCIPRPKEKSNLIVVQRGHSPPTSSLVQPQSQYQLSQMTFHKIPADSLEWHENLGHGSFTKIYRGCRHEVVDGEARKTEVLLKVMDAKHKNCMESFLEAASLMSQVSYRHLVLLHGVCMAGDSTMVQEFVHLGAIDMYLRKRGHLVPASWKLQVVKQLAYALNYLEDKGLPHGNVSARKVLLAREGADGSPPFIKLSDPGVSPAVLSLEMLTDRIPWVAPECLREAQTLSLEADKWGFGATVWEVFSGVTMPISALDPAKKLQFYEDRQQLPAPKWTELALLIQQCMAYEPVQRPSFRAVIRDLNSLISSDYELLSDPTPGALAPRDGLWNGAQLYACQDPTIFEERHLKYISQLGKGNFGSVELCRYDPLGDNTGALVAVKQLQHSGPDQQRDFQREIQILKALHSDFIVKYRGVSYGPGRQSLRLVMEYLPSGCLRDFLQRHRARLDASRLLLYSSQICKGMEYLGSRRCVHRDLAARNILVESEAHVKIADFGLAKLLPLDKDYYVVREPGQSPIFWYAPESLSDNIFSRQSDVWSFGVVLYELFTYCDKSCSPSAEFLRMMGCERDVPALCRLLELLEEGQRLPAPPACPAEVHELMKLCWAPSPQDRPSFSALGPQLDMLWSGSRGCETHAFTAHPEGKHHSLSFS
Procedure: as §1, §2, §3, §4, §5, §6, §7

TYK2 = molecular target: T4, TYK2 (Homo sapiens, UniProt P29597); experiment: Kinobeads assay with immunodetection, TYK2; settings: for IC50: Kinobeads assay, mixed Molt4/Ramos lysate, read-out: Inhibition values (IC50) Tyk2
T4 construct: endogenous in cells; host or cells: Molt4 (ATCC CRL-1582) and Ramos (ATCC CRL-1596) cells; mixed lysate 1:2
Procedure: as §1, §2, §3, §4, §5, §6, §7

T4 sequence (P29597 whole entry): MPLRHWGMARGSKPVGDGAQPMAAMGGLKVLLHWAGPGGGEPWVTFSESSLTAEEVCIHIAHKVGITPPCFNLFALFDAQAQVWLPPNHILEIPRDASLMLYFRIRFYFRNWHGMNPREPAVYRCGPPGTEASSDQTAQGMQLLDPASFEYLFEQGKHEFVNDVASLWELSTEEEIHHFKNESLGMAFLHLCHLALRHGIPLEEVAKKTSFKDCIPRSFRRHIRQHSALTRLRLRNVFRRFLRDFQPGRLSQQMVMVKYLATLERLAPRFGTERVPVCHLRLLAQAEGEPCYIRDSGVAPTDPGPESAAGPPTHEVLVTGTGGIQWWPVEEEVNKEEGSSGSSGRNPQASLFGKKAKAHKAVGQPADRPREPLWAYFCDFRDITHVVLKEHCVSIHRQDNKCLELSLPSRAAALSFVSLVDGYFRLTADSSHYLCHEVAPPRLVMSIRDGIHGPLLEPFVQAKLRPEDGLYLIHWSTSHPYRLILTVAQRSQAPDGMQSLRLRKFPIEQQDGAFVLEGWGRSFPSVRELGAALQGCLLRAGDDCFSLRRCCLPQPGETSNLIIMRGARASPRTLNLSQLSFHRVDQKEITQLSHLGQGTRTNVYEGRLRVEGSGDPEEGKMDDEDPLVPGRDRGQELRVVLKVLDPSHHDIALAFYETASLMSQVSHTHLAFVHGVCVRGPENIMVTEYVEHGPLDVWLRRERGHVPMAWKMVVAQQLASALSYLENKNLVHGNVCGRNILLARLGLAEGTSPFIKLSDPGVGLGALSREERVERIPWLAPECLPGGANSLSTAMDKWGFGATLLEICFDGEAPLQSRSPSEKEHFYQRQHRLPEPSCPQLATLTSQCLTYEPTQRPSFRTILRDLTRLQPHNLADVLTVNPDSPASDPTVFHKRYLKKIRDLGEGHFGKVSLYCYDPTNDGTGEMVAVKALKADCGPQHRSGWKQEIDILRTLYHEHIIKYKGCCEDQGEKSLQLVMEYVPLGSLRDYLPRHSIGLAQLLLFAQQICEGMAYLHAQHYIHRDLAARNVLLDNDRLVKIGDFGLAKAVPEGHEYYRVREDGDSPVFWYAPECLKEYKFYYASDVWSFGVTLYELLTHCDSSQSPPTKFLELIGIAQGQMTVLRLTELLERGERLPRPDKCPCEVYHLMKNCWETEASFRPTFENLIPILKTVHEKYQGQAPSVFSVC
T1 sequence (P23458 whole entry): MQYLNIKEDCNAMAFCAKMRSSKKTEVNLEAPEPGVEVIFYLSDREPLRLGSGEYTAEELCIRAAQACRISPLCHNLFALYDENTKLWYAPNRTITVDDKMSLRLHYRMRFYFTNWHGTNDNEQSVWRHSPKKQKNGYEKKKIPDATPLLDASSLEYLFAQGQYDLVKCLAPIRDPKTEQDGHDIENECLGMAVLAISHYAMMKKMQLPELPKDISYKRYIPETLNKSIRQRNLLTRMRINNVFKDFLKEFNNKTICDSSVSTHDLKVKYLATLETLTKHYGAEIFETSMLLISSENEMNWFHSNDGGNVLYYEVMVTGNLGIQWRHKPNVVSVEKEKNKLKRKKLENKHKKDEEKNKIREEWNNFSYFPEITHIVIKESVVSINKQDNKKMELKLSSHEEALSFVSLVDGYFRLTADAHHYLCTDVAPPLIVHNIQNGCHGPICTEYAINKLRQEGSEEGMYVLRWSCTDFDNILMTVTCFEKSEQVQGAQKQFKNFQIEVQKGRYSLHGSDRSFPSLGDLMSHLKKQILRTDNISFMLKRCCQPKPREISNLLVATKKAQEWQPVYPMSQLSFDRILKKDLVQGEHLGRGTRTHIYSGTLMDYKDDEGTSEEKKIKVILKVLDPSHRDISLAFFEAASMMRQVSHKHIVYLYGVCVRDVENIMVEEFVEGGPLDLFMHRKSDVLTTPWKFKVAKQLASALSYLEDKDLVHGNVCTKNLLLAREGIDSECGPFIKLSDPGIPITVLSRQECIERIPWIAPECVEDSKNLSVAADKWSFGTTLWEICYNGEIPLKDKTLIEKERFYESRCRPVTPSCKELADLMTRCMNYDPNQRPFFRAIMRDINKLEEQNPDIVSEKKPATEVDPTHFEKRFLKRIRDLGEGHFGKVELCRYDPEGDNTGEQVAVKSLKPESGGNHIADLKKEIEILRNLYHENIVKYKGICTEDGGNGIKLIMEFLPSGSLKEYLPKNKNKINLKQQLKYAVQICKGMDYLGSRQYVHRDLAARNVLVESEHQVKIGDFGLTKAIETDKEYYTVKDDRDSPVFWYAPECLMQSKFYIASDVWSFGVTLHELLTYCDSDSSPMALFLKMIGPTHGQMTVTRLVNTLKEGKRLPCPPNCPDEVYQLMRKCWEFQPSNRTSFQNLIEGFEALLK
T2 sequence (O60674 whole entry): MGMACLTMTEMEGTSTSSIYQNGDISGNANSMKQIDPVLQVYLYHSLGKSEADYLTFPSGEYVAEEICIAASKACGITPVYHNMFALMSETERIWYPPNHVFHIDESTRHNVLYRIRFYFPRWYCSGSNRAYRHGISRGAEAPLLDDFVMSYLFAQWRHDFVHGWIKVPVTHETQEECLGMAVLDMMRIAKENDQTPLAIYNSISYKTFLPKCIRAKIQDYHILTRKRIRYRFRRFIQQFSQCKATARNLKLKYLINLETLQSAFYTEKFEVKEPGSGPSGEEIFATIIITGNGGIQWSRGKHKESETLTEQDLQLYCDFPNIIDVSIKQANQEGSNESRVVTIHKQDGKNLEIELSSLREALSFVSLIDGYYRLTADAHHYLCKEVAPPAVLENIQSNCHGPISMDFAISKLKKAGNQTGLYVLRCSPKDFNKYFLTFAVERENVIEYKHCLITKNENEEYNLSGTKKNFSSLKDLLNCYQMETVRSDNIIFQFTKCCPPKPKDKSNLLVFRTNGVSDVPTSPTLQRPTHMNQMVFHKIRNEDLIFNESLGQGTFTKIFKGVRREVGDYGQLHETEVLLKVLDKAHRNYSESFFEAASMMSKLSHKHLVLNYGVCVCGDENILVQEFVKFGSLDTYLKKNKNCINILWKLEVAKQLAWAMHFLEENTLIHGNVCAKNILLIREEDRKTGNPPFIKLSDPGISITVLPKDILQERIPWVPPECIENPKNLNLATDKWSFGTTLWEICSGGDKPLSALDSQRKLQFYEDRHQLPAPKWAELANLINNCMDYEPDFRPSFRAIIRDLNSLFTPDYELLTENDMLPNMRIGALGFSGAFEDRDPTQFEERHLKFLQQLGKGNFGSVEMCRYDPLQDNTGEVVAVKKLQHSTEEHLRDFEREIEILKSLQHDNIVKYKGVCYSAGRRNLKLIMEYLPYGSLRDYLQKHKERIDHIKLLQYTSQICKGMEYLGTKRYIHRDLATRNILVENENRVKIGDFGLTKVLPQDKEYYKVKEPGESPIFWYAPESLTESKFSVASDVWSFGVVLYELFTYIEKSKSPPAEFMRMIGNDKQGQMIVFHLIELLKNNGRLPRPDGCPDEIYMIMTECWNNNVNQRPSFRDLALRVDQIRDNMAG

Compound	IC50 (JAK1)	IC50 (JAK2)	IC50 (JAK3)	IC50 (TYK2)	Selectivity ratio over JAK2, JAK1 (JAK1)	Selectivity ratio over JAK2, Tyk2 (TYK2)	Selectivity ratio over JAK2, JAK3 (JAK3)
C=CC(=O)N1CC[C@@H](CNc2nc(Nc3cnn(CCO)c3)ncc2Cl)C1 [Example 29, (S)-1-(3-(((5-chloro-2-((1-(2-hydroxyethyl)-1H-pyrazol-4-yl)amino)pyrimidin-4-yl)amino)methyl)pyrrolidin-1-yl)prop-2-en-1-one]	0.1 to 1 µM	> 10 µM	0.1 to 1 µM	1 to 10 µM			
CC(=O)N1CCC[C@@H]1CNc1nc(Nc2cnn(C)c2)ncc1Cl [Example 1, (R)-1-(2-(((5-chloro-2-((1-methyl-1H-pyrazol-4-yl)amino)pyrimidin-4-yl)amino)methyl)pyrrolidin-1-yl)ethanone]	0.1 to 1 µM	1 to 10 µM	< 0.1 µM	< 0.1 µM	JAK1 = 8		
C=CC(=O)N1CC[C@@H](CNc2nc(Nc3cnn(C)c3)ncc2Cl)C1 [Example 28, (S)-1-(3-(((5-chloro-2-((1-methyl-1H-pyrazol-4-yl)amino)pyrimidin-4-yl)amino)methyl)pyrrolidin-1-yl)prop-2-en-1-one]	1 to 10 µM	> 10 µM	0.1 to 1 µM	1 to 10 µM			
Cn1cc(Nc2ncc(Cl)c(NC[C@H]3CCN(C(=O)CC#N)C3)n2)cn1 [Example 58, (R)-3-(3-((5-chloro-2-(1-methyl-1H-pyrazol-4-ylamino)pyrimidin-4-ylamino)methyl)pyrrolidin-1-yl)-3-oxopropanenitrile]	< 0.1 µM	0.1 to 1 µM	< 0.1 µM	< 0.1 µM	JAK1 = 15		
Cn1cc(Nc2ncc(Cl)c(NC[C@H]3CCCN3C(=O)CC#N)n2)cn1 [Example 52, (R)-3-(2-((5-chloro-2-(1-methyl-1H-pyrazol-4-ylamino)pyrimidin-4-ylamino)methyl)pyrrolidin-1-yl)-3-oxopropanenitrile]	< 0.1 µM	0.1 to 1 µM	< 0.1 µM	< 0.1 µM		Tyk2 = 30	
Cn1cc(Nc2ncc(Cl)c(NC[C@@H]3CCCCN3S(C)(=O)=O)n2)cn1 [Example 36, (S)-5-chloro-N^2-(1-methyl-1H-pyrazol-4-yl)-N^4-((1-(methylsulfonyl)piperidin-2-yl)methyl)pyrimidine-2,4-diamine]	< 0.1 µM	1 to 10 µM	0.1 to 1 µM	0.1 to 1 µM			JAK3 = 54
CNC(=O)Cn1cc(Nc2ncc(Cl)c(NC[C@H]3CCCN3)n2)cn1 [Example 63, (R)-2-(4-(5-chloro-4-(pyrrolidin-2-ylmethylamino)pyrimidin-2-ylamino)-1H-pyrazol-1-yl)-N-methylacetamide]	1 to 10 µM	> 10 µM	1 to 10 µM	1 to 10 µM			
CCNC(=O)N1CCC[C@@H]1CNc1nc(Nc2cnn(C)c2)ncc1Cl [Example 88, (R)-2-(((5-chloro-2-((1-methyl-1H-pyrazol-4-yl)amino)pyrimidin-4-yl)amino)methyl)-N-ethylpyrrolidine-1-carboxamide]	0.1 to 1 µM	0.1 to 1 µM	0.1 to 1 µM	< 0.1 µM		Tyk2 = 35	
C=CS(=O)(=O)N1CCCC[C@H]1CNc1nc(Nc2cnn(C)c2)ncc1Cl [Example 38, (S)-5-chloro-N^2-(1-methyl-1H-pyrazol-4-yl)-N^4-((1-(vinylsulfonyl)piperidin-2-yl)methyl)pyrimidine-2,4-diamine]	0.1 to 1 µM	1 to 10 µM	< 0.1 µM	0.1 to 1 µM			JAK3 = 57

More lines, now with the values ahead:

IC50 (JAK1)	IC50 (JAK2)	IC50 (JAK3)	IC50 (TYK2)	Selectivity ratio over JAK2, JAK1 (JAK1)	Selectivity ratio over JAK2, Tyk2 (TYK2)	Selectivity ratio over JAK2, JAK3 (JAK3)	Compound
< 0.1 µM	0.1 to 1 µM	< 0.1 µM	< 0.1 µM		Tyk2 = 67		Cc1cnc(Nc2cnn(C)c2)nc1NC[C@H]1CCCN1CCS(C)(=O)=O [Example 107, (R)-5-methyl-N^2-(1-methyl-1H-pyrazol-4-yl)-N^4-((1-(2-(methylsulfonyl)ethyl)pyrrolidin-2-yl)methyl)pyrimidine-2,4-diamine]
< 0.1 µM	0.1 to 1 µM	< 0.1 µM	< 0.1 µM			JAK3 = 32	Cn1cc(Nc2ncc(Cl)c(NCC3CCCN(C(=O)CC#N)C3)n2)cn1 (centres unmarked) [Example 134, 3-(3-(((5-chloro-2-((1-methyl-1H-pyrazol-4-yl)amino)pyrimidin-4-yl)amino)methyl)piperidin-1-yl)-3-oxopropanenitrile]
0.1 to 1 µM	0.1 to 1 µM	< 0.1 µM	0.1 to 1 µM			JAK3 = 78	Cn1cc(Nc2ncc(Cl)c(NC[C@@H]3CCCN(C(=O)CCC#N)C3)n2)cn1 [Example 136, (S)-4-(3-(((5-chloro-2-((1-methyl-1H-pyrazol-4-yl)amino)pyrimidin-4-yl)amino)methyl)piperidin-1-yl)-4-oxobutanenitrile]
< 0.1 µM	1 to 10 µM	< 0.1 µM	0.1 to 1 µM	JAK1 = 88			Cn1cc(Nc2ncc(Cl)c(NC[C@@H]3C[C@H](F)CN3C(=O)CCC#N)n2)cn1 [Example 110, 4-((2S,4S)-2-(((5-chloro-2-((1-methyl-1H-pyrazol-4-yl)amino)pyrimidin-4-yl)amino)methyl)-4-fluoropyrrolidin-1-yl)-4-oxobutanenitrile]
